Laboratory results from patent publication US9745274B2, “Compound, organic cation transporter 3 detection agent, and organic cation transporter 3 activity inhibitor” (SHIN NIPPON BIOMEDICAL LABORATORIES, LTD., priority 2013, dated 2017).

Key:
[1] = target: T1, human organic cation transporter 3 (hOCT3) (Homo sapiens, UniProt O75751); assay: Histamine incorporation experiment in HEK293 cells expressing hOCT3 (OCT3 inhibition activity); format: cell-based; details: for OCT3 Inhibition Rate (%): Tables 3-1 to 3-15, in a manner similar to Example 12 (30 μM there), concentration not given in the tables; for remaining activity at 10 µM / remaining activity at 30 µM: HEK293, 1 min, no inhibitor = 100%, read-out: Histamine Incorporation Rate to Control (%); for remaining activity at 10 µM / inhibition at 10 µM: Compound Concentration 10 μM; for remaining activity at 30 µM / inhibition at 30 µM: Compound Concentration 30 μM; for remaining activity at 30 µM: [3H]histamine 100 nM, 1 minute; for inhibition at 10 µM / inhibition at 30 µM: HEK293, 100% minus histamine incorporation rate
T1 construct: expressed in transfected cells; host or cells: HEK293
T1 sequence (O75751 1-556): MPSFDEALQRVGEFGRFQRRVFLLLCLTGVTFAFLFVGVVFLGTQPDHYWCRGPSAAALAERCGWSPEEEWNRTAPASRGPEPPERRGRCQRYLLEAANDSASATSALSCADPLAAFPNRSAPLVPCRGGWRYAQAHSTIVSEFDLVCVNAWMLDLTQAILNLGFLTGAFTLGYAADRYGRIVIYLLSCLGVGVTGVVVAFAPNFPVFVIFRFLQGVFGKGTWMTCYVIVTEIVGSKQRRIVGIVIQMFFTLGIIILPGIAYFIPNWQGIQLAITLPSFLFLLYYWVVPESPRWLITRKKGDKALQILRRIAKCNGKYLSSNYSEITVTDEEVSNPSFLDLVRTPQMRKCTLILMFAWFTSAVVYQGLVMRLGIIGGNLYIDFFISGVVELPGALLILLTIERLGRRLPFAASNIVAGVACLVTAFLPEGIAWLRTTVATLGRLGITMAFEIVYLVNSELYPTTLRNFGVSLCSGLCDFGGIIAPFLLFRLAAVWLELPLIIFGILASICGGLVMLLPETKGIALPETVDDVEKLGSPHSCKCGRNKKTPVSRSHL
Experimental: In order to measure an activity that inhibits OCT3 from incorporating a substrate (OCT3 inhibition activity) for each compound, histamine incorporation experiments as described below were performed.
Histamine incorporation experiments were performed in accordance with a method disclosed in Br J Pharmacol. 2002; 136(6): 829-836. In the experiments, HEK293 cells were used. The HEK293 cell is a human embryonal renal cell strain expressing human organic cation transporter 3 (hOCT3). The HEK 293 cells were inoculated onto 24-well plates at 1.5×10^5 cells/well, and were cultivated overnight in a carbon dioxide incubator. Test substances were dissolved in 100% DMSO solution and then dissolved in HBSS-HEPES solution (buffer solution prepared by dissolving 9.7 g Hank's Balanced Salt, 1.4% sodium bicarbonate 25 mL, and 1M HEPES 25 mL in 940 mL ultra pure water, and by adjusting to pH7.4 with 1M sodium hydroxide). After removing culture media for cell culture, pretreatment was performed for 5 minutes with 1 mL HBSS-HEPES solution. Then, the test substance and [3H]histamine (final concentration 100 nM) were added to the cells and reacted for 1 minute at room temperature. After the reaction was completed, the reaction was stopped by ice-cooled HBSS-HEPES solution, extracellular fluid was aspirated by an aspirator, and then the cells were washed twice with HBSS-HEPES. After washing, the cells were dissolved in 0.5M sodium hydroxide solution. The amount of histamine in the cells was found by measuring a radioactivity in a cell lysis solution by a liquid scintillation counter. Protein content in the cells was measured by Lowry method (J Biol Chem. 1951; 193(1): 265-75) by using the cell lysis solution, and translated into histamine incorporation amount per protein content for each experiment. A histamine incorporation rate (%) in the presence of 30 μM of the test substance was calculated by regarding a histamine incorporation amount in a case of no incorporation inhibitor as 100% (control) of histamine incorporation rate. A value (%) obtained by subtracting the histamine incorporation rate from 100(%) was calculated as an OCT3 inhibition rate (%).
Note that a histamine incorporation rate (%) in the presence of 10 μM of the test substance was calculated by regarding a histamine incorporation amount in a case of no incorporation inhibitor as 100% (control) of histamine incorporation rate. A value (%) obtained by subtracting the histamine incorporation rate from 100(%) was calculated as an OCT3 inhibition rate (%). […]

[2] = target: T1, human organic cation transporter 3 (hOCT3); assay: as above; format: cell-based; details: control curve; for IC80: HEK293

Compound	OCT3 Inhibition Rate (%) [1]	remaining activity at 10 µM [1]	remaining activity at 30 µM [1]	inhibition at 10 µM [1]	inhibition at 30 µM [1]	IC80 [2]	IC50 [2]
CN(C)c1nc(CSCC/C(N)=N/S(=O)(=O)C(F)(F)F)cs1 [SR-2005]	−7.8%						
Cc1nc(CCSCc2csc(N(C)C)n2)[nH]c(=O)c1CCc1ccccc1 [SR-2011]	37.9%						
NC(N)=Nc1cccc(CSCC/C(N)=N/S(=O)(=O)C(F)(F)F)c1 [SR-2020]	25.4%						
NC(N)=Nc1cccc(CSCC/C(N)=N/S(=O)(=O)C(F)(F)F)n1 [SR-2022]		50%	21%	50%	79%	30 µM	10.5 µM
NC(N)=Nc1cc(CSCC/C(N)=N/S(=O)(=O)C(F)(F)F)ccn1 [SR-2023]		36.7%	15%	63.3%	85%	28 µM	6.5 µM
Cc1nc(CCSCc2cccc(N=C(N)N)n2)[nH]c(=O)c1CCc1ccccc1 [SR-2036]		33.7%	15.4%	66.3%	84.6%	27 µM	5.9 µM
CN/C(=C\[N+](=O)[O-])NCCSCc1csc(N=C(N)N)n1 [SR-2044]	7.9%						
NC(N)=Nc1nc(CSCCNC(=O)CO)cs1 [SR-2045]		56.6%	35.2%	43.4%	64.8%	56 µM	12.4 µM
NC(N)=Nc1nc(CSCCc2ncc(CCc3ccccc3)o2)cs1 [SR-2051]	38.8%						
Cc1nc(CCCOc2cc(N=C(N)N)ccn2)[nH]c(=O)c1CCc1ccccc1 [SR-2064]	17.5%						
NC(N)=Nc1nc(CCCC/C(N)=N/S(=O)(=O)C(F)(F)F)cs1 [SR-2065]		72.9%	41.5%	27.1%	58.5%	90 µM	24 µM
NC(N)=Nc1nc(CCCC/C(N)=N/S(N)(=O)=O)cs1 [SR-2066]			58.1%		41.9%		
N=C(N)CCCCc1csc(N=C(N)N)n1 [SR-2068, 5-[2-(diaminomethyleneamino)thiazole-4-yl]pentaimideamide]	28.5%						

Further lines, results first:

OCT3 Inhibition Rate (%) [1]	remaining activity at 10 µM [1]	remaining activity at 30 µM [1]	inhibition at 10 µM [1]	inhibition at 30 µM [1]	IC80 [2]	IC50 [2]	Compound
		48.6%		51.4%			N#C/N=C(\N)NCCCCc1csc(N=C(N)N)n1 [SR-2069]
27.0%							N=C(N)NCCCCc1csc(N=C(N)N)n1 [SR-2071]
		52.9%		47.1%			NC(N)=Nc1nc(CCCCNC(=O)CO)cs1 [SR-2073]
23.9%							CNC(=O)CCCCc1csc(N=C(N)N)n1 [SR-2075]
	14.8%	11.8%	85.2%	88.2%	8 µM	1.9 µM	Cc1nc(CCCCc2csc(N=C(N)N)n2)[nH]c(=O)c1CCc1ccccc1 [SR-2076]
16.3%							CNC(=O)CCSCc1csc(N=C(N)N)n1 [SR-2203]
3.4%							CNCCCCc1csc(N=C(N)N)n1 [SR-2204]
6.7%							CC(C)c1nc(CSCCC(N)=NS(N)(=O)=O)cs1 [SR-2207, (Z)-3-((2-isopropylthiazol-4-yl)methylthio)-N′-sulfamoylpropanimidamide]
45.8%							Cc1nc(CCSCc2csc(N=C3NCCN3)n2)[nH]c(=O)c1CCc1ccccc1 [SR-2213]
61.5%							NC(N)=Nc1nc(CSCCC(N)=NS(=O)(=O)C(F)(F)F)cs1 [SR-2216]
	51.5%	22.6%	48.5%	77.4%	49 µM	19 µM	Cc1nc(CCSCc2ccnc(N=C(N)N)c2)[nH]c(=O)c1CCc1ccccc1 [SR-2219]
30.4%							CC(=O)NC(=O)CCSCc1csc(N=C(N)N)n1 [SR-2225]
21.8%							NC(N)=Nc1nc(CSCCC(=O)NC(=O)c2ccccc2)cs1 [SR-2226]
